Five molecules from patent US20020102688A1, “Methods and products for the synthesis of oligosaccharide structures on glycoproteins, glycolipids, or as free molecules, and for the isolation of cloned genetic sequences that determine these structures” (The Regents of the University of Michigan, priority 1990, published 2002) can be followed below.

The target of the experiment is T1, Fuc-TIII (Homo sapiens, UniProt P21217).
T1 construct: showing that this insert is essentially full-length; expressed in transfected cells; host or cells: COS-1 cells (monkey kidney), transient DEAE-dextran transfection, 1% Triton X-100 extract
T1 sequence (P21217 1-361): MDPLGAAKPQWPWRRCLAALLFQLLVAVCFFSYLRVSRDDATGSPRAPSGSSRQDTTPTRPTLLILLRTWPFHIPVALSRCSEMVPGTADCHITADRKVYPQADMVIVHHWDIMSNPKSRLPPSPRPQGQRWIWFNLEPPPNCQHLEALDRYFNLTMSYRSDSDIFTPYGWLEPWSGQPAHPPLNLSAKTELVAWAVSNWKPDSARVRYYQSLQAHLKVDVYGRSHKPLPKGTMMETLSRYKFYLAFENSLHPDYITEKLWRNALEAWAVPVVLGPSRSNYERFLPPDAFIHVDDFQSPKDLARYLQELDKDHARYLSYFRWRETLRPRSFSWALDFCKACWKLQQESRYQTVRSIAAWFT
As to the kind of experiment: Fucosyltransferase assay, extracts of COS-1 cells expressing the Lewis fucosyltransferase. The settings on record: for fucose transfer to acceptor: extracts containing the Lewis blood group fucosyltransferase, same conditions as Fuc-TIV; for Relative Activity (%) with Fuc-TIII: relative product formation rate, N-acetyllactosamine = 100, acceptor 20 mM (2-fucosyllactose 5 mM), GDP-[14C]fucose 3 μM, transfected COS-1 cell extract. Format: biochemical. As to the method:
Fucosyltransferase assays were performed in 50 mM MOPS pH 6.5, 25 MM MnCl2 10 MM L-fucose, 5 mM ATP, […] GDP-[^14C]fucose (specific activity of 600,000 cpm/nmol; 35,000 cpm per assay), 2.5 mM acceptor (e.g. 2′-fucosyllactose, N-acetyllactosamine, lactose or lacto-N-biose I), and up to 10 μl of cell extract, in a final volume of 20 μl. When determining α(1,3)FT specific activities achieved during the sib selection process, and in the analysis of the protein A-fucosyltransferase fusion protein experiments, the amount of added cell extract and incubation times were adjusted to yield (linear) reaction rates reflecting accurate specific activities. Reactions were incubated at 37° C. for 2 or 6 hours, and then terminated by the addition of 20 μl of ethanol, followed by dilution with 500 μl of H2O. The terminated, diluted reactions were then centrifuged at 15,000×g for 5 min. Fifty μl of each reaction supernatant was counted to determine total radioactivity, and 200 μl of each was fractionated by Dowex-1 chromatography. The neutral radiolabelled material eluting from the column was then counted directly as a measure of product formation. Enzyme specific activity is defined as pmol of fucose transferred from GDP-fucose to acceptor per mg cell extract protein per hour. Neutral products were also further analyzed as described below by descending paper chromatography and by HPLC to confirm their identity. Parallel reactions were done in the absence of added acceptor to allow correction for transfer to endogenous acceptor molecules and for substrate and product hydrolysis.
Cell extracts containing 1% Triton X-100 were prepared from transfected COS-1 cells. Fucosyltransferase assays were performed in a total volume of 20 μl, and contained 50 mM sodium cacodylate, pH 6.2, 5 mM ATP, 10 mM fucose, 20 mM MnCl2, 3 μM GDP-^14C-fucose, and 5 μl (30 μg protein) of cell extract. Acceptor substrates were added to a final concentration of 20 mM. Reactions were incubated at 37° C. for 1 hour and terminated by addition of 20 μl ethanol, followed by addition of 600 μl of distilled water. An aliquot of each reaction (50 μl) was subjected to scintillation counting to determine total radioactivity in the reaction. Another aliquot (200 μl) was applied to a column containing 400 μl of Dowex IX2-400, formate form. The flow through fraction, and […] of a subsequent water elution, were collected and pooled, and an aliquot was subjected to scintillation counting to quantitate incorporation of radioactive fucose into neutral product. Descending paper chromatography was used to confirm the structure of the product formed with the acceptor N-acetyllactosamine. The neutral product in the Dowex column eluate was concentrated by lyophilization, resuspended in a small volume of water, and fractionated through Whatman No. 40 in phenol/isopropanol/formic acid/water (85:5:10:100, lower layer). After chromatography (40 hours), the air-dried chromatogram was cut into 1 cm strips and the strips eluted into 2 ml of water. Radioactivity in each eluate was determined by scintillation counting after mixing with 10 ml of scintillation cocktail.
Table 2 presents the relative product formation rates obtained with low molecular weight acceptor substrates using cell extracts containing recombinant human α(1,3)fucosyltransferases expressed in transfected COS-1 cells, as described in the preceding sections. Fucosyltransferase assays were performed as described in detail in Lowe et al, J. Biol. Chem., (1991), 266:17467-17477; Weston et al, J. Biol. Chem. (1992), 267:4152-4160; and Kukowska-Latallo et al, Genes. Devel., (1990), 4:1288-1303. For each enzyme, the same extract was used, with saturating amounts of each acceptor oligosaccharide (20 mM, except for 2′-fucosylactose which was used at 5 mM), and GDP-^14C]fucose was present at 3 μM. Reaction times and enzyme amounts were adjusted to ensure a linear rate of product formation (less than 15% of the GDP-fucose substrate consumed). […]

With `CC(=O)N[C@H]1C(O)O[C@H](CO)[C@@H](O[C@@H]2O[C@H](CO)[C@H](O)[C@H](O)[C@H]2O)[C@@H]1O` (stereo partly shown) [N-acetyllactosamine], the “fucose transfer to acceptor” value was found to be 526 pmol/mg/h and the “Relative Activity (%) with Fuc-TIII” value is on record as 100%.
On to `CC(=O)N[C@@H]1[C@@H](O[C@@H]2O[C@H](CO)[C@H](O)[C@H](O)[C@H]2O)[C@H](O)[C@@H](CO)O[C@@H]1O` [lacto-N-biose I], for which the “Relative Activity (%) with Fuc-TIII” value turned out to be 420%.
Take `OC[C@H]1O[C@@H](O[C@H]2[C@H](O)[C@@H](O)C(O)O[C@@H]2CO)[C@H](O)[C@@H](O)[C@H]1O` (stereo partly shown) [lactose]: the “Relative Activity (%) with Fuc-TIII” value was 145%.
With `CC(=O)NC1C(O)OC(CO)C(OC2OC(CO)C(O)C(OC3(C(=O)O)CC(O)C(NC(C)=O)C(C(O)C(O)CO)O3)C2O)C1O` (stereo not drawn) [α(2,3)sialyllactosamine, NeuAcα(2→3)Galβ(1→4)GlcNAc], the “fucose transfer to acceptor” value was found to be 297 pmol/mg/h and the “Relative Activity (%) with Fuc-TIII” value was 56%.
As to “Fucα(1,2)Galβ(1,4)Glc [2-fucosyllactose]”, the “Relative Activity (%) with Fuc-TIII” value is listed as 254%.
